# Reference: patent US20250346615A1, “GLYCEROPHOSP[…] PREVENTING AND TREATING COVID-19 INFECTIONS AND METHOD FOR OBTAINING IT” (PLANTAREI BIOTECH S.R.L., priority 2022, published 2025)
# Read-outs that look alike come from different tables or passages of the source.
# Tests used:
# Human monocytes [1] = settings: GPI 300 uM; for protein expression level (fold increase over control cells): LPS stimulus
# From the text: (§1) The purpose of the experiments conducted is the in vitro evaluation of the anti-inflammatory activity and of the immune modulating power in the response to bacterial or viral activation, of monocytes activated and treated with GPI. Measurements of protein production or miRNA levels were expressed as an increase relative to the respective control (unstimulated) cells.
# Human monocytes were isolated from fresh buffy coats of healthy blood donors, kindly provided by the Centro Immunotrasfusionale, Hospital of Ferrara, Italy, through a Ficoll-Paque™ PLUS gradient followed by Percoll™. PBMCs were firstly obtained by 1.077 g/ML Ficoll-Paque™ PLUS (GE Healthcare Life Sciences, Little Chalfont, UK) density gradient separation according to the manufacturer's protocol. After collecting the mononuclear cells located at the interface between Ficoll and plasma-medium layer, these were washed with PBS, then layered over a solution of 1.130 g/mL Percoll™ (GE Healthcare Life Sciences) before centrifugation at 1650 rpm for 30 min at 4° C. The monocyte layer, which appeared cloudy and occasionally with few red spots, was carefully aspirated and washed with PBS to remove traces of Percoll™. The harvested monocytes were then suspended in RPMI 1640 medium (EuroClone) containing 2% FBS, and incubated at 37° C. and 5% CO2. After 1 h, non-adherent cells including residual lymphocytes were removed, and monocytes were detached using a cell scraper, then seeded onto plastic culture wells. […]
# The supernatants of the cultures after 5 and 24 h were collected, centrifuged at 400×g for 10 min at 4° C., then analyzed for TF HGF, PGE-2 and IL-10 production using commercial ELISA kits (Thermo Fisher Scientific) according to the manufacturer's instructions. […]
# Measurements of protein production or miRNA levels were expressed as fold increase over the respective control (unstimulated) cells, and are means (SD) of triplicates from one representative experiment of 4 experiments performed with cells from different donors.
# Human monocytes [2] = settings: GPI 300 uM, activated monocytes, 24 hours of treatment (FIG. 6)
# From the text: Human monocytes were isolated from fresh buffy coats of healthy blood donors, kindly provided by the Centro Immunotrasfusionale, Hospital of Ferrara, Italy, through a Ficoll-Paque™ PLUS gradient followed by Percoll™. PBMCs were firstly obtained by 1.077 g/ML Ficoll-Paque™ PLUS (GE Healthcare Life Sciences, Little Chalfont, UK) density gradient separation according to the manufacturer's protocol. After collecting the mononuclear cells located at the interface between Ficoll and plasma-medium layer, these were washed with PBS, then layered over a solution of 1.130 g/mL Percoll™ (GE Healthcare Life Sciences) before centrifugation at 1650 rpm for 30 min at 4° C. The monocyte layer, which appeared cloudy and occasionally with few red spots, was carefully aspirated and washed with PBS to remove traces of Percoll™. The harvested monocytes were then suspended in RPMI 1640 medium (EuroClone) containing 2% FBS, and incubated at 37° C. and 5% CO2. After 1 h, non-adherent cells including residual lymphocytes were removed, and monocytes were detached using a cell scraper, then seeded onto plastic culture wells.
# Treatment with GPI: 300 uM. […]
# Measurements of protein production or miRNA levels were expressed as fold increase over the respective control (unstimulated) cells, and are means (SD) of triplicates from one representative experiment of 4 experiments performed with cells from different donors. […]
# Human monocytes [3] = settings: GPI 300 uM, 24 hours of treatment (FIG. 5)
# From the text: as §1
# Human monocytes were isolated from fresh buffy coats of healthy blood donors, kindly provided by the Centro Immunotrasfusionale, Hospital of Ferrara, Italy, through a Ficoll-Paque™ PLUS gradient followed by Percoll™. […]
# Total RNA was extracted from cultures after 12 and 24 h using the total RNA purification Plus kit, The RNA quality and concentration of the samples were measured with the NanoDrop™ ND-1000 (Thermo Fisher Scientific). […]
# Real-time PCR was performed according to the user's manual of the Inflammatory RT^2 profiler PCR Array (Qiagen) with a StepOnePlus™ Real-Time PCR System (Applied Biosystems™, Foster City, CA, USA) and using RT^2 SYBR Green ROX FAST Master Mix (Qiagen). Thermal cycling and fluorescence detection were as follows: 95° C. for 10 min, followed by 40 cycles of 95° C. for 15 s, and 60° C. for 1 min. […] Data were analyzed using the Web-based PCR array data analysis software, which is available at https://www.qiagen.com/it/shop/genes-and-pathways/data-analysis-center-overview-page/. […]
substance,measurement,setting,value
L-α-glycero-phospho-D-myo-inositol [GPI],protein expression level (fold increase over control cells),Human monocytes [1]; 5 hours of treatment (FIG. 3),inhibitory effects
same,protein expression level (fold increase over control cells),Human monocytes [1]; 24 hours of treatment (FIG. 4),inhibitory effects
same,inflammatory cytokine production,Human monocytes [1]; monocytes in inflammation / LPS sepsis / viral infection mimicking environment,reduce
same,production of IL12 and 23 during inflammation,Human monocytes [2],reduction
same,miRNA level related to M1 (inflammatory) or M2 (antiinflammatory) commitment,Human monocytes [3],inhibitory effects
